Tested on: HCV 1b genotype
Test: HCV Replicon assay (HCV 16-377-neo replicon cells)
Format: cell-based
Conditions: Hepatitis C virus; HCV 1b genotype replicon cells; read-out: EC50 ranges against HCV 1b
Protocol: An HCV Replion assay was utilized in the present disclosure, and was prepared, conducted and validated as described in commonly owned PCT/US2006/022197 and in O'Boyle et. al. Antimicrob Agents Chemother. 2005 Apr;49(4): 1346-53.
HCV 16-377-neo replicon cells were used to test the currently described compound series as well as cells resistant to compound A due to a Y2065H mutation in NS5A (described in application PCT/US2006/022197). The compounds tested were determined to have more than 10-fold less inhibitory activity on cells resistant to compound A than wild-type cells indicating a related mechanism of action between the two compound series. Thus, the compounds of the present disclosure can be effective to inhibit the function of the HCV NS5A protein and are understood to be as effective in combinations as previously described in application PCT/US2006/022197 and commonly owned WO/O4014852. Further, the compounds of the present disclosure can be effective against the HCV 1b genotype. It should also be understood that the compounds of the present disclosure can inhibit multiple genotypes of HCV. […] In one embodiment compounds of the present disclosure are active against the 1a, 1b, 2a, 2b, 3a, 4a, and 5a genotypes.

Structure (SMILES): COC(=O)N[C@H](C(=O)N1CCC[C@H]1c1nc(-c2ccc(-c3ccc(-c4[nH]c([C@@H]5CCCN5C(=O)[C@@H](NC(=O)OC)[C@@H](C)OC)nc4CC(OC)OC)cc3)cc2)c[nH]1)[C@@H](C)OC [Example J14a, methyl ((1S,2R)-1-(((2S)-2-(4-(2,2-dimethoxyethyl)-5-(4'-(2-((2S)-1-(N-(methoxycarbonyl)-O-methyl-L-threonyl)-2-pyrrolidinyl)-1H-imidazol-4-yl)-4-biphenylyl)-1H-imidazol-2-yl)-1-pyrrolidinyl)carbonyl)-2-methoxypropyl)car bamate]
- EC50: 0.001 to 0.999 nM

Structure (SMILES): CC(C)[C@H](O)C(=O)N1[C@@H](C)CC[C@H]1c1nc(-c2ccc(-c3ccc(-c4c[nH]c([C@@H]5CC[C@H](C)N5C(=O)[C@@H](O)C(C)C)n4)cc3)cc2)c[nH]1 [Example M161, (2S,2'S)-1,1'-(4,4'-biphenyldiylbis(1H-imidazole-4,2-diyl((2S,5S)-5-methyl-2,1-pyrrolidinediyl)))bis(3-methyl-1-oxo-2-butanol)]
- EC50: 1 to 99 nM

Structure (SMILES): CC(C)[C@H](N)C(=O)N1[C@@H]2C[C@@H]2C[C@H]1c1ncc(-c2ccc(-c3ccc(-c4cnc([C@@H]5C[C@H]6C[C@H]6N5C(=O)[C@@H](N)C(C)C)[nH]4)cc3)cc2)[nH]1 [Example M140a-ii]
- EC50: 1 to 99 nM

Structure (SMILES): CC(=O)N[C@@H](C(=O)N1[C@@H]2CC2C[C@H]1c1nc(-c2ccc(-c3ccc(-c4c[nH]c([C@@H]5C[C@H]6C[C@H]6N5C(=O)[C@H](NC(C)=O)C(C)C)n4)cc3)cc2)c[nH]1)C(C)C (mixture of isomers) [Example M143, N-((1R)-1-(((1R,3S,5R)-3-(4-(4'-(2-((1R,3S,SR)-2-((2R)-2-acetamido-3-methylbutanoyl)-2-azabicyclo[3.1.0]hex-3-yl)-1H-imidazol-4-yl)-4-biphenylyl)-1H-imidazol-2-yl)-2-azabicyclo[3.1.0]hex-2-yl)carbonyl)-2-methylpropyl)acetamide]
- EC50: 1 to 99 nM

Structure (SMILES): COC(=O)N[C@@H](C(=O)N1CC2(CC2)C[C@H]1c1nc(-c2ccc(-c3ccc(-c4c[nH]c([C@@H]5CC6(CC6)CN5C(=O)[C@H](NC(=O)OC)c5ccccc5)n4)cc3)cc2)c[nH]1)c1ccccc1 [Example M150, dimethyl (4,4'-biphenyldiylbis(1H-imidazole-4,2-diyl(6S)-5-azaspiro[2.4]heptane-6,5-diyl((1R)-2-oxo-1-phenyl-2,1-ethanediyl)))biscarbamate]
- EC50: 0.001 to 0.999 nM

Structure (SMILES): COC(=O)N[C@H](C(=O)N1CC(F)(F)C[C@H]1c1nc(-c2ccc(-c3ccc(-c4c[nH]c([C@@H]5CCCN5C(=O)[C@@H](NC(=O)OC)C(C)C)n4)c(F)c3)cc2)c[nH]1)C(C)C [Example J14e, methyl ((1S)-1-(((2S)-4,4-difluoro-2-(4-(3'-fluoro-4'-(2-((2S)-1-((2S)-2-((methoxycarbonyl)amino)-3-methylbutanoyl)-2-pyrrolidinyl)-1H-imidazol-4-yl)-4-biphenylyl)-1H-imidazol-2-yl)-1-pyrrolidinyl)carbonyl)-2-methylpropyl)carba mate]
- EC50: 0.001 to 0.999 nM

Structure (SMILES): COC(=O)N[C@@H](C)C(=O)N1[C@@H](C)CC[C@H]1c1nc(-c2ccc(-c3ccc(-c4c[nH]c([C@@H]5CC[C@H](C)N5C(=O)[C@H](C)NC(=O)OC)n4)cc3)cc2)c[nH]1 [Example M157, methyl ((1S)-2-((2S,5S)-2-(4-(4'-(2-((2S,5S)-1-(N-(methoxycarbonyl)-L-alanyl)-5-methyl-2-pyrrolidinyl)-1H-imidazol-4-yl)-4-biphenylyl)-1H-imidazol-2-yl)-5-methyl-1-pyrrolidinyl)-1-methyl-2-oxoethyl)carbamate]
- EC50: 0.001 to 0.999 nM

Structure (SMILES): CCN(CC)[C@@H](C(=O)N1CCC[C@H]1c1nc(C)c(-c2ccc(-c3ccc(-c4[nH]c([C@@H]5CCCN5C(=O)[C@@H](c5ccccc5)N(CC)CC)nc4C)cc3)cc2)[nH]1)c1ccccc1 [Example E5h, (1R,1'R)-2,2'-(4,4'-biphenyldiylbis((4-methyl-1H-imidazole-5,2-diyl)(2S)-2,1-pyrrolidinediyl))bis (N,N-diethyl-2-oxo-1-phenylethanamine)]
- EC50: 0.001 to 0.999 nM

Reference: patent EP2242752B1, “[…] IMIDAZOLES AS HEPATITIS C VIRUS INHIBITORS” (Bristol-Myers Squibb Company, priority 2008, dated 2009)
